Measured values published in patent US10624887B2, “Compositions of (-)-17-(cyclobutylmethyl)morphinan-3,14,-diol” (priority 2010, dated 2020).
Entries after “also recorded” stand apart in the source; their conditions may differ. Like-named read-outs stand apart in the source and are kept apart here.

How the values were obtained:
[1] = tested on: vincristine induced painful neuropathy; assay: Vincristine induced painful neuropathy, mechanical allodynia (von Frey filaments); assay type: in vivo, Wistar rats; conditions: vincristine neuropathic rats
Text: The aim of this study was to evaluate the effect of oral administration of butorphanol in rats with vincristine induced painful neuropathy. The primary measurements were made mechanical and thermal allodynia designed to detect effects of the treatment(s) on neuropathic pain.
Wistar rats weighing 250±20 g were maintained on standard laboratory diet and having free access to tap water ad lib were employed in the present study. They were housed in the animal house and were exposed to 12 hr cycle of light and dark. The experiments were conducted in a semi-sound proof laboratory. Care of the animals was in accordance with guidelines for experimentation on animals.
The vincristine model was adapted from Authier et al (1999). Rats were injected on five alternate days (day 4, 6, 8, 10 & 12) with vincristine (200 μg/kg i.p.) using an injection volume of 2 ml/kg. […]
Mechano-allodynia was assessed using von Frey filaments. […] Both hind paws were tested for allodynia and the average of the two was recorded as data. Results were expressed in grams and determined before and 30 and 60 min after the administration of the test drugs.
The anti-nociceptive effect was plotted assessed having time (relative to dosing time point) on the x-axis and percent maximum possible effect (% MPE) on the y-axis. The results were expressed as mean±standard error of means (S.E.M.). […]

[2] = tested on: nociception in rats; assay: Radiant heat tail flick test; assay type: in vivo, Wistar rats; conditions: butorphanol 1 mg/kg
Text: The tail flick test was first described by D'Amour and Smith (1941), and remains essentially unchanged in application. (See generally D'Amour, F. E. and Smith, D. L., “A method for determining loss of pain sensation”, J. Pharmacol. Exp. Therap., 72:74-79(1941); Dewey, D. L. and Harris, L. S., The Tail-flick test. In: S. Ehrenpreis and A. Neidle (Eds.), Methods in Narcotic Research, Marcel Dekker, Inc., New York, 1975, pp. 101-109; and Dubner, R. and Ren, K., “Assessing transient and persistent pain in animals” In: P. D. Wall and R. Melzack (Eds.), Textbook of Pain, Churchill Livingstone, London, 1999, pp. 359-369). Quite simply, the tail of a rat or mouse is exposed to radiant heat, and the latency to withdraw is determined. The basal heat intensity is set so that naive rats withdraw their tails within 2 to 3 sec. A cut-off latency of 10 sec (i.e., 3 to 4 times basal control value) is commonly employed to prevent tissue damage. […]
Three groups were employed in the present study with each group comprising of 8 animals. […] Area under the curve was calculated using a graph between % MPE and time. Area under the curve was employed as a quantitative measure of the analgesic effect of the treatments.
Nociceptive threshold was measured with the tail flick test (D'Amour and Smith, 1941). […] Tail flick latency is expressed as a percentage of the maximum possible effect (MPE): […]

[3] = intranasal, single dose, cited from earlier work

## Oc1ccc2c(c1)[C@@]13CCCC[C@@]1(O)[C@@H](C2)N(CC1CCC1)CC3 [butorphanol, (−)17-(Cyclobutylmethyl)morphinan-3,14-diol]
[1]; oral 1, 3, 10, 30 mg/kg, FIG. 15
  mechanical withdrawal threshold: dose dependent increase; also recorded: significant increase
[1]; oral
  time of peak effect post-administration (mechanical allodynia): 30 min
[2]; intra-gastric, intra-ileal and intra-colonic administration, each, rats
  tail flick latency: significant increase
[2]; tail flick, FIG. 13
  antinociceptive effect (area under the curve of % MPE vs time), intra-colonic versus intra-gastric or intra-ileal: significantly greater antinociceptive effect
[3]; 1 mg
  dizziness: 46%
  headache: 46%
  nausea: 38%
  oxygen desaturation: 3%
  vomiting: 17%
[3]; 2 mg
  dizziness: 58%
  headache: 29%
  nausea: 46%
  oxygen desaturation: 3%
  vomiting: 17%
